Data on two compounds can be found in patent US20070148666A1, “Diagnosis and Treatment of Brain Cancer” (priority 2005, published 2007).

Assay type in all cases: cell-based, human
One series concerns p21. The series can be described thus: qPCR of p21 mRNA after TSA. As to conditions: TSA 0.2 μM, D283, Daoy and MB 100 primary cells, n=3. The method, then: (§1) RNA was isolated from cells and tissues with Triazol (Invitrogen, Carlsbad, Calif.). Real-time PCR was performed on the ABI PRISM 7900 HT detection system using Taq man reagents (Applied Biosystems, Foster City, Calif.) per the manufacturer's recommendations. Gene expression was determined with Assay on Demand gene expression reagents (Applied Biosystems, Foster City, Calif.). All assays were done in triplicate.
In general terms: In qPCR the cycle at which signal appears reflects the starting amount.

The test system of the next series is sFRP 1. Nature of the series: Expression microarray, TSA fold increase of sFRP1. As to conditions: D283 medulloblastoma cells. An excerpt:
(§2) RNA from vehicle and TSA treated D283 cells was reverse-transcribed and hybridized to the ABI 1700 Human Genome Expression Microarray containing 33,202 gene-specific 60-mer oligonucleotide probes. Data was quantile normalized and t-test was applied to each gene for statistical significance. Differential gene expression was quantified using the Storey q-value method and data visualized using Spotfire software.
(§3) The inventors performed studies that determined that antagonists of Wnt signalling are epigenetically silenced in medulloblastoma.
(§4) The D283 cell line was cultured with either 0.2 μM TSA or DMSO for 9 hours to generate gene expression profiles in response to TSA. Total RNA was extracted from treated cells using Trizol (Invitrogen, Carlsbad, Calif.). RNA was further purified using the RNeasy kit (QIAGEN, Valencia, Calif.) per manufacturer's protocol and purity of RNA was determined by the Agilent Bioanalyzer. 2 μg of total RNA was reverse-transcribed with the Chemiluminescent RT-IVT Labeling Kit (Applied Biosystems, Foster City, Calif.) and hybridized to a 60-mer whole genome oligonucleotide microarray (Applied Biosystems, Foster City, Calif.) containing 33,202 probes representing 29,098 genes per manufacturer's protocol. […] Differential gene expression was quantified using Storey q-value method (Storey and Tibshirani, 2003, Proc Natl Acad Sci USA 100, 9440-9445). […]

The test system of the next series is histone acetylation. The series can be described thus: Western blot analysis of histone acetylation. As to conditions: D283 cells, 9 hours of TSA exposure. In general terms: In western blotting, separated proteins are transferred to a membrane and probed.
In series [1] the test system is D283 medulloblastoma cells. Nature of the series: Cell viability of D283 cells treated with TSA (MTT assay, washout experiments). The method, then: The inventors tested cell viability of D283 medulloblastoma cells treated with increasing doses of the HDAC inhibitor TSA (FIG. 1A). They also tested cell viability was measured by an MTT assay.
The inventors also determined the minimum time of TSA exposure needed to induce cell death (FIG. 1B). D283 cells were exposed to TSA for various time points and the media replaced for an additional 24 h prior to assaying for cell viability.
To identify genes regulated by changes in histone H3 K9 acetylation status, the inventors first determined the optimal dose and timing for treating D283 medulloblastoma cells with TSA. The D283 cell line was chosen since it is widely used as a cell model of medulloblastoma and is well characterized. […] For microarray studies, the inventors treated D283 cells with 0.2 μM TSA for 9 hours. […] To confirm the microarray analysis, real-time quantitative PCR (qPCR) was performed on nine randomly selected genes (FIG. 12A).

Another series relates to WIF 1. Nature of the series: Expression microarray, TSA fold increase of WIF1. The settings on record: D283 medulloblastoma cells.
Excerpt: as §2, §3, §4

For another series, the system named is Dkk 1. The series can be described thus: Expression microarray, TSA fold increase of Dkk1. The settings on record: D283 medulloblastoma cells.
Excerpt: as §2, §3, §4

Another series deals with DKK1. The series can be described thus: qPCR of DKK1 expression after TSA. The method, then:
The inventors identified genes by means of the microarray analysis. The results were verified by real time PCR (ABI) in D283 cells using Assay on demand gene expression reagents (ABI) for selected genes. Human Gus was used as the normalizer gene. Real-time PCR was performed on ABI PRISM 7900 HT detection system. Validated genes were assayed in normal brain and medulloblastoma patient samples.
as §1

In series [2] the test system is D283 cells. The series can be described thus: FACS analysis of TUNEL-stained D283 cells (apoptosis). The settings on record: 12 hours, TUNEL FACS (DMSO 13%). On the procedure: FIGS. 11A-11C. Effects of TSA on D283 cells. (FIG. 11A) Dose response curves of cell viability for D283 medulloblastoma cells treated with increasing doses of the HDAC inhibitor TSA. (FIG. 11B) FACs analysis of TUNEL-stained (BD Biosciences) D283 cells treated with TSA for 12 hours. FACs dot plots of cells with DMSO (i), and cells treated with 0.02 μM and 0.2 μM TSA (ii and iii).

The subject of another series is RASSF1. Nature of the series: qPCR of RASSF1 mRNA after TSA. The settings on record: TSA 0.2 μM, D283, Daoy and MB 100 primary cells, n=3. On the procedure: as §1
Series [3] deals with D283 cells. Nature of the series: Whole genome expression microarray of TSA treated D283 cells. As to conditions: 0.2 μM TSA, 9 hours, q<0.001. On the procedure: as §2
as §4, with “protocol. A total of three microarray hybridizations, one for each biological replicate, were performed per treatment.” for “protocol.”

Series [4] deals with D283 cells. The series can be described thus: Colony formation assay on soft agar. As to conditions: transfected D283 cells, after 3 weeks, p<0.001. On the procedure:
Wnt inhibitors were cloned into pcDNA3.1, D283 cells transfected and plated on agar. Colonies selected in G418. Total number of colonies formed on agar was counted for three separate experiments (FIG. 8).
Colony formation assays were performed on soft agar. Cells were plated at 1.5×10^5 per well using 6-well plates and transfected with pcDNA3.1D/V5-His-TOPO/DKK1, pcDNA3.1D/N5-His-TOPO/lacZ or pcDNA3.1D/V5-His-TOPO with no insert (mock control) using Trans It-Neural transfection reagents (Mirus). The cells were selected in G418 (1 mg/ml) supplemented media at 24 hr post transfection. The cells were simultaneously harvested to confirm their expression at the mRNA level by real-time PCR. G418 resistant cells were maintained for two weeks in culture. Cells were re-suspended in media containing 0.3% agarose and were overlaid on 0.6% agarose. 0.5 ml media was added to the plates every four days and colony formation was quantified after fixation and staining with methylene blue after 3 weeks.

As to `CC(/C=C/C(=O)NO)=C\[C@@H](C)C(=O)c1ccc(N(C)C)cc1` [TSA, Trichostatin A], the “p21 mRNA” value in the series with p21 is listed as “induction”. In addition, the “TSA fold increase of sFRP1” value in the series on sFRP 1 was determined as 2.9 fold. For the same compound, the histone acetylation entry in the series with histone acetylation is reported as “robust histone acetylation”. The cell viability in series [1] (0.1 μM TSA, 24 h, MTT assay) amounted to 50%; in [1] (0.2 μM TSA, 9 hours), 100%; in [1] (0.2 μm TSA, 24 h, MTT assay), 30%. Moreover, the “cells committed to cell death by 24 hours” value in series [1] (0.2 μM TSA for 9 hours, washout) came to 85%. The compound also registered a surviving cells in series [1] (TSA exposure between 6 and 9 h, media replaced for additional 24 h) of 80%. The “TSA fold increase of WIF1” value in the series with WIF 1 amounted to 2.5 fold. Besides, the “TSA fold increase of Dkk1” value in the series on Dkk 1 turned out to be 1.4 fold. Moreover, the DKK1 expression entry in the series with DKK1 (D283 cells, TSA 0.2 μm, qPCR) is on record as “potently induces DKK1 expression”; in the series with DKK1 (MB47, MB100, MB187 primary cells and D283, RT-PCR), “increased on TSA treatment”. The apoptotic cells in the series with D283 cells [2] (0.02 μM TSA) came to 31%; in the series with D283 cells [2] (0.2 μM TSA), 79%. In addition, the “RASSF1 mRNA” value in the series on RASSF1 is “induction”. Besides, the “number of genes induced at least 2-fold” value in the series with D283 cells [3] was 714.
For the compound DKK1, the “fewer neo-resistant colonies than controls” value with D283 cells [4] was found to be 60%.

Broadly, the cell viability is a read-out of living cells in per cent, often relative to untreated cells. High values mean better survival, low ones a greater loss of cells.
